Measurements from patent US12263172B2, “Toll-like receptor agonists for use in the treatment of hepatitis b” (priority 2019, dated 2025).
Values joined by “and” are separate entries in the source; they are usually repeats but may differ in a detail not shown here. Equal values may be shown once. “Also recorded” adds a separate entry of the source.

Assay: Phase 1 single-ascending dose (Part 1): safety and tolerability in healthy adults
Format: in vivo, human
Procedure: This ongoing trial is a Phase 1 randomized, double-blind, placebo-controlled study in male and female healthy adult volunteers aged 18-55 years. All volunteers provided written, informed consent.
All volunteers were followed up for 4 weeks and safety and tolerability were continuously assessed throughout the study. All adverse events (AEs) were recorded from the time of consent to the completion visit and were graded using the DAIDS toxicity grading scale. Volunteers also underwent physical examinations, electrocardiograms, vital sign checks and clinical laboratory parameters (chemistry, haematology, urinalysis).

CCCCOc1nc(N)c2[nH]cc(Cc3ccc(CN4CCCC4)cc3)c2n1 [Compound 4]
vital signs: Supine SBP (mmHg) Grade 1 (single dose 1.25 mg fed): 0 n (%) | vital signs: Supine SBP (mmHg) Grade 2 (single dose 1.25 mg fed): 0 n (%) | vital signs: Supine SBP (mmHg) Low (single dose 1.25 mg fed): 0 n (%) | vital signs: Supine pulse (bpm) Low (single dose 1.25 mg fed): 0 n (%) | ↑ AST Grade 3 (laboratory abnormality) (single dose 1.25 mg fed): 0 n (%) | ↑ Amylase Grade 2 (laboratory abnormality) (single dose 1.25 mg fed): 0 n (%) | ↑ Cholesterol Grade 2 (laboratory abnormality) (single dose 1.25 mg fed): 1 (14) n (%) | ↑ Creatine kinase Grade 2 (laboratory abnormality) (single dose 1.25 mg fed): 0 n (%) | ↑ Creatine kinase Grade 4 (laboratory abnormality) (single dose 1.25 mg fed): 0 n (%) | ↑ Glucose Grade 2 (laboratory abnormality) (single dose 1.25 mg fed): 0 n (%) | ↑ LDL cholesterol Grade 2 (laboratory abnormality) (single dose 1.25 mg fed): 1 (14) n (%) | ↑ LDL cholesterol Grade 3 (laboratory abnormality) (single dose 1.25 mg fed): 0 n (%) | ↑ Lipase Grade 2 (laboratory abnormality) (single dose 1.25 mg fed): 0 n (%) | ↑ Pancreatic amylase Grade 2 (laboratory abnormality) (single dose 1.25 mg fed): 0 n (%) | ↑ Potassium Grade 2 (laboratory abnormality) (single dose 1.25 mg fed): 0 n (%) | ↑ Sodium Grade 2 (laboratory abnormality) (single dose 1.25 mg fed): 0 n (%) | ↑ Triglycerides Grade 2 (laboratory abnormality) (single dose 1.25 mg fed): 1 (14) n (%) | ↑ Triglycerides Grade 3 (laboratory abnormality) (single dose 1.25 mg fed): 0 n (%) | ↓ Bicarbonate Grade 2 (laboratory abnormality) (single dose 1.25 mg fed): 0 n (%) | ↓ GFR Grade 2 (laboratory abnormality) (single dose 1.25 mg fed): 0 n (%) | ↓ Lymphocytes Grade 2 (laboratory abnormality) (single dose 1.25 mg fed): 0 n (%) | ↓ Lymphocytes Grade 4 (laboratory abnormality) (single dose 1.25 mg fed): 0 n (%) | ↓ Neutrophils Grade 2 (laboratory abnormality) (single dose 1.25 mg fed): 0 n (%) | ↓ Phosphate Grade 2 (laboratory abnormality) (single dose 1.25 mg fed): 1 (14) n (%) | subjects with Grade 2 treatment-related AEs (pyrexia, headache and hypertension) (single dose 1.8 mg): 2 (33.3%) n (%) | subjects with contact dermatitis (AE) (single dose 1.8 mg): 3 (50.0%) n (%) | subjects with grade 1 increase in temperature around 12 hours after dosing (single dose 1.8 mg): Two | Any AE (treatment-emergent) (single dose 1.8 mg fasted): 5 (83) n (%) | Back pain Grade 1 (treatment-emergent AE) (single dose 1.8 mg fasted): 2 (33) n (%) | Chills Grade 1 (treatment-emergent AE) (single dose 1.8 mg fasted): 2 (33) n (%) | Contact dermatitis Grade 1 (treatment-emergent AE) (single dose 1.8 mg fasted): 3 (50) n (%) | Dizziness Grade 1 (treatment-emergent AE) (single dose 1.8 mg fasted): 2 (33) n (%) | ECG actual value: Heart rate (bpm) Low (single dose 1.8 mg fasted): 0 n (%) | ECG actual value: QRS (ms) High (single dose 1.8 mg fasted): 0 n (%) | ECG actual value: QTcB (ms) ]450; 480] (single dose 1.8 mg fasted): 0 n (%) | ECG actual value: QTcF (ms) ]450; 480] (single dose 1.8 mg fasted): 0 n (%) | ECG change from reference: QTcB (ms) [30; 60] (single dose 1.8 mg fasted): 1 (16.7%) n (%) | ECG change from reference: QTcF (ms) [30; 60] (single dose 1.8 mg fasted): 0 n (%) | Headache Grade 1 (treatment-emergent AE) (single dose 1.8 mg fasted): 0 n (%) | Headache Grade 2 (treatment-emergent AE) (single dose 1.8 mg fasted): 1 (17) n (%) | Hypertension Grade 1 (treatment-emergent AE) (single dose 1.8 mg fasted): 1 (17) n (%) | Hypertension Grade 2 (treatment-emergent AE) (single dose 1.8 mg fasted): 1 (17) n (%) | Myalgia Grade 1 (treatment-emergent AE) (single dose 1.8 mg fasted): 1 (17) n (%) | Oropharyngeal pain Grade 1 (treatment-emergent AE) (single dose 1.8 mg fasted): 1 (17) n (%) | Pyrexia Grade 1 (treatment-emergent AE) (single dose 1.8 mg fasted): 1 (17) n (%) | Pyrexia Grade 2 (treatment-emergent AE) (single dose 1.8 mg fasted): 1 (17) n (%) | URTI Grade 1 (treatment-emergent AE) (single dose 1.8 mg fasted): 1 (17) n (%) | lab toxicity: Amylase (U/L), upwards, Grade 1 (single dose 1.8 mg fasted): 1 (16.7%) n (%) | lab toxicity: Amylase (U/L), upwards, Grade 2 (single dose 1.8 mg fasted): 0 n (%) | lab toxicity: Cholesterol (mmol/L), upwards, Grade 1 (single dose 1.8 mg fasted): 1 (16.7%) n (%) | lab toxicity: Cholesterol (mmol/L), upwards, Grade 2 (single dose 1.8 mg fasted): 0 n (%) | lab toxicity: Creatine kinase (U/L), upwards, Grade 1 (single dose 1.8 mg fasted): 0 n (%) | lab toxicity: Creatine kinase (U/L), upwards, Grade 2 (single dose 1.8 mg fasted): 1 (16.7%) n (%) | lab toxicity: Creatine kinase (U/L), upwards, Grade 4 (single dose 1.8 mg fasted): 0 n (%) | lab toxicity: Glucose (mmol/L), upwards, Grade 1 (single dose 1.8 mg fasted): 0 n (%) | lab toxicity: Glucose (mmol/L), upwards, Grade 2 (single dose 1.8 mg fasted): 0 n (%) | lab toxicity: LDL cholesterol (mmol/L, calculated), upwards, Grade 1 (single dose 1.8 mg fasted): 0 n (%) | lab toxicity: LDL cholesterol (mmol/L, calculated), upwards, Grade 2 (single dose 1.8 mg fasted): 0 n (%) | lab toxicity: LDL cholesterol (mmol/L, calculated), upwards, Grade 3 (single dose 1.8 mg fasted): 0 n (%) | lab toxicity: Lymphocytes (giga/L), downwards, Grade 2 (single dose 1.8 mg fasted): 0 n (%) | lab toxicity: Lymphocytes (giga/L), downwards, Grade 4 (single dose 1.8 mg fasted): 2 (33.3%) n (%) | lab toxicity: Neutrophils, segmented (giga/L), downwards, Grade 1 (single dose 1.8 mg fasted): 0 n (%) | lab toxicity: Neutrophils, segmented (giga/L), downwards, Grade 2 (single dose 1.8 mg fasted): 1 (16.7%) n (%) | lab toxicity: Platelets (giga/L), downwards, Grade 1 (single dose 1.8 mg fasted): 2 (33.3%) n (%) | lab toxicity: Sodium (mmol/L), upwards, Grade 1 (single dose 1.8 mg fasted): 2 (33.3%) n (%) | lab toxicity: Sodium (mmol/L), upwards, Grade 2 (single dose 1.8 mg fasted): 1 (16.7%) n (%) | lab toxicity: Triglycerides (mmol/L), upwards, Grade 1 (single dose 1.8 mg fasted): 5 (83.3%) n (%) | lab toxicity: Triglycerides (mmol/L), upwards, Grade 2 (single dose 1.8 mg fasted): 0 n (%) | lab toxicity: Triglycerides (mmol/L), upwards, Grade 3 (single dose 1.8 mg fasted): 1 (16.7%) n (%) | lab toxicity: Urate (μmol/L), upwards, Grade 1 (single dose 1.8 mg fasted): 1 (16.7%) n (%) | subjects with at least one AE (single dose 1.8 mg fasted): 5 (83.3%) n (%) | subjects with at least one AE for which any study drug or study was permanently stopped (single dose 1.8 mg fasted): 0 n (%) | subjects with at least one AE for which any study drug or study was temporarily stopped (single dose 1.8 mg fasted): 0 n (%) | subjects with at least one AE possibly related to any study drug (single dose 1.8 mg fasted): 1 (16.7%) n (%) | subjects with at least one AE possibly, probably or very likely related to any study drug (single dose 1.8 mg fasted): 2 (33.3%) n (%) | subjects with at least one AE probably related to any study drug (single dose 1.8 mg fasted): 2 (33.3%) n (%) | subjects with at least one SAE (single dose 1.8 mg fasted): 0 n (%) | subjects with at least one fatal AE (single dose 1.8 mg fasted): 0 n (%) | subjects with at least one grade 1 AE (single dose 1.8 mg fasted): 3 (50.0%) n (%) | subjects with at least one grade 2 AE (single dose 1.8 mg fasted): 2 (33.3%) n (%) | subjects with at least one grade 3 or 4 AE (single dose 1.8 mg fasted): 0 n (%) | subjects with fever and flu-like symptoms (flu-like AEs and lymphopenia) (single dose 1.8 mg fasted): 2 and 2/6 | subjects with high VLDL cholesterol levels (non-graded) (single dose 1.8 mg fasted): 4 (66.7%) n (%) | subjects with high values for segmented neutrophils/leukocytes (non-graded) (single dose 1.8 mg fasted): 4 (66.7%) n (%) | treatment-related AE: Any AE (single dose 1.8 mg fasted): 2 (33.3%) n (%) | treatment-related AE: Chills (single dose 1.8 mg fasted): 2 (33.3%) n (%) | treatment-related AE: Dizziness (single dose 1.8 mg fasted): 2 (33.3%) n (%) | treatment-related AE: General disorders and administration site conditions (single dose 1.8 mg fasted): 2 (33.3%) n (%) | treatment-related AE: Headache (single dose 1.8 mg fasted): 1 (16.7%) n (%) | treatment-related AE: Hypertension (single dose 1.8 mg fasted): 2 (33.3%) n (%) | treatment-related AE: Myalgia (single dose 1.8 mg fasted): 1 (16.7%) n (%) | treatment-related AE: Nervous system disorders (single dose 1.8 mg fasted): 2 (33.3%) n (%) | treatment-related AE: Oropharyngeal pain (single dose 1.8 mg fasted): 1 (16.7%) n (%) | treatment-related AE: Pyrexia (single dose 1.8 mg fasted): 2 (33.3%) n (%) | treatment-related AE: Respiratory, thoracic and mediastinal disorders (single dose 1.8 mg fasted): 1 (16.7%) n (%) | treatment-related AE: Vascular disorder (single dose 1.8 mg fasted): 2 (33.3%) n (%) | vital signs: Respiratory rate (brpm) Grade 1 (single dose 1.8 mg fasted): 2 (33.3%) n (%) | vital signs: Respiratory rate (brpm) Grade 2 (single dose 1.8 mg fasted): 1 (16.7%) n (%) | vital signs: SaO2 (%) 90% to <95% (single dose 1.8 mg fasted): 0 n (%) | vital signs: SaO2 (%) 95% to <98% (single dose 1.8 mg fasted): 2 (33.3%) n (%) | vital signs: Standing DBP (mmHg) Grade 1 (single dose 1.8 mg fasted): 3 (50.0%) n (%) | vital signs: Standing DBP (mmHg) Grade 2 (single dose 1.8 mg fasted): 1 (16.7%) n (%) | vital signs: Standing DBP (mmHg) Grade 3 (single dose 1.8 mg fasted): 1 (16.7%) n (%) | vital signs: Standing DBP (mmHg) Low (single dose 1.8 mg fasted): 0 n (%) | vital signs: Standing SBP (mmHg) Grade 1 (single dose 1.8 mg fasted): 1 (16.7%) n (%) | vital signs: Standing SBP (mmHg) Low (single dose 1.8 mg fasted): 0 n (%) | vital signs: Standing pulse (bpm) High (single dose 1.8 mg fasted): 0 n (%) | vital signs: Standing pulse (bpm) Low (single dose 1.8 mg fasted): 0 n (%) | vital signs: Supine DBP (mmHg) Grade 1 (single dose 1.8 mg fasted): 1 (16.7%) n (%) | vital signs: Supine DBP (mmHg) Low (single dose 1.8 mg fasted): 0 n (%) | vital signs: Supine SBP (mmHg) Grade 1 (single dose 1.8 mg fasted): 1 (16.7%) n (%) | vital signs: Supine SBP (mmHg) Grade 2 (single dose 1.8 mg fasted): 1 (16.7%) n (%) | vital signs: Supine SBP (mmHg) Low (single dose 1.8 mg fasted): 0 n (%) | vital signs: Supine pulse (bpm) Low (single dose 1.8 mg fasted): 1 (16.7%) n (%) | ↑ AST Grade 3 (laboratory abnormality) (single dose 1.8 mg fasted): 0 n (%) | ↑ Amylase Grade 2 (laboratory abnormality) (single dose 1.8 mg fasted): 0 n (%) | ↑ Cholesterol Grade 2 (laboratory abnormality) (single dose 1.8 mg fasted): 1/5 | ↑ Creatine kinase Grade 2 (laboratory abnormality) (single dose 1.8 mg fasted): 1 n (%) | ↑ Creatine kinase Grade 4 (laboratory abnormality) (single dose 1.8 mg fasted): 0 n (%) | ↑ Glucose Grade 2 (laboratory abnormality) (single dose 1.8 mg fasted): 0 n (%) | ↑ LDL cholesterol Grade 2 (laboratory abnormality) (single dose 1.8 mg fasted): 0 n (%) | ↑ LDL cholesterol Grade 3 (laboratory abnormality) (single dose 1.8 mg fasted): 0 n (%) | ↑ Lipase Grade 2 (laboratory abnormality) (single dose 1.8 mg fasted): 1/5 | ↑ Pancreatic amylase Grade 2 (laboratory abnormality) (single dose 1.8 mg fasted): 1/2 | ↑ Potassium Grade 2 (laboratory abnormality) (single dose 1.8 mg fasted): 1/5 | ↑ Sodium Grade 2 (laboratory abnormality) (single dose 1.8 mg fasted): 1 n (%) | ↑ Triglycerides Grade 2 (laboratory abnormality) (single dose 1.8 mg fasted): 0 n (%) | ↑ Triglycerides Grade 3 (laboratory abnormality) (single dose 1.8 mg fasted): 1 n (%) | ↓ Bicarbonate Grade 2 (laboratory abnormality) (single dose 1.8 mg fasted): 1 n (%) | ↓ GFR Grade 2 (laboratory abnormality) (single dose 1.8 mg fasted): 0 n (%) | ↓ Lymphocytes Grade 2 (laboratory abnormality) (single dose 1.8 mg fasted): 0 n (%) | ↓ Lymphocytes Grade 4 (laboratory abnormality) (single dose 1.8 mg fasted): 2 n (%) | ↓ Neutrophils Grade 2 (laboratory abnormality) (single dose 1.8 mg fasted): 1 n (%) | ↓ Phosphate Grade 2 (laboratory abnormality) (single dose 1.8 mg fasted): 0 n (%) | lab toxicity: GFR from creatinine adjusted for BSA (mL/s/1.73m^2), downwards, Grade 2 (single dose 1.8 mg fasted, n = 1 with data): 0 n (%) | safety and tolerability (single oral doses of 0.2-1.8 mg): well tolerated with no major safety concerns; also recorded: generally considered safe and well tolerated
